Reference: patent US9271962B2 (NORTHEASTERN UNIVERSITY, priority 2008, dated 2016)
Where two headings read alike, the source gives them in different places.

Tests used:
hMGL = target: T1, hMGL (Homo sapiens, UniProt Q99685); test: Fluorescent enzyme assay, MGL (AHMMCE hydrolysis); type: biochemical; settings: for inhibition at 100 µM: 100 uM inhibitor, printed in the 1000 nM column; for inhibition at 1 µM: 1000 nM inhibitor; for inhibition at 0.01 µM: read-out: % Inhibition of Enzyme by inhibitor, MGL, 10 nM
T1 construct: A full-length cDNA clone of the human MGL transcript variant 1; made in house; host or cells: E. coli BL21 (DE3)
T1 sequence (Q99685 2-303 limits assumed): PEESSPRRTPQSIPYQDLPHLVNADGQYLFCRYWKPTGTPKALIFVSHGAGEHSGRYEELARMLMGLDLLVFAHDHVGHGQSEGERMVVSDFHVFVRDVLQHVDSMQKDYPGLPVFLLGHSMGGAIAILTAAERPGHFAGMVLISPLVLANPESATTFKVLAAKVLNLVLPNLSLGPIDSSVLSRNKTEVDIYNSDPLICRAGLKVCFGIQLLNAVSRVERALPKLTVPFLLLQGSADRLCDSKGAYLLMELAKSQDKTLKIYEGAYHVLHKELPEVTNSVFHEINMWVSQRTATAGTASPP
Description: (§1) Some analogs were tested for their FAAH/MGL inhibitory activity, which is expressed as % of inhibition (Tables 2, 3, and 4 below). The percentage of inhibition results from three-point assay (three concentrations of inhibitor are used) and it is less accurate (preliminary screening) than the IC50/Ki values that are determined from eight-point assay (eight different concentrations of inhibitor were used). The percentage of inhibition describes the percentage by which the inhibitor reduces the velocity/rate of AAMCA (arachidonoyl-7-amino-4-methylcoumarin amide) or AHMMCE (arachidonoyl-7-hydroxy-6-methoxy-4-methylcoumarin ester) hydrolysis by FAAH or MGL respectively. The IC50 is the concentration of the inhibitor, which results in 50% inhibition of the velocity/rate of AAMCA (arachidonoyl 7-amino-4-methylcoumarin amide) hydrolysis by FAAH or AHMMCE (Arachidonoyl, 7-hydroxy-6-methoxy-4-methylcoumarin ester) hydrolysis by MGL. The Ki value is the affinity constant and describes the ability of the compounds to inhibit the function of FAAH or MGL. The lower the IC50/Ki values, the higher the affinity of the inhibitor for the enzyme and the higher its inhibitory activity. A detailed description of the methods used to test inhibitory activity of compounds is given below.
A full-length cDNA clone of the human MGL transcript variant 1 (gi: 51242951) was obtained from OriGene Technologies (Rockville, Md.). The coding part of the MGL sequence (except the translation initiation codon ATG) was amplified by a polymerase chain reaction (PCR) using forward […] and reverse […] primers containing PmlI and SacI restriction enzyme recognition sites, respectively. iProof high-fidelity DNA polymerase (Bio-Rad, Hercules, Calif.) was used in the PCR amplification with 33 cycles, each consisting of denaturation at 94° C. for 10 s, annealing at 55° C. for 33 s, and extension at 72° C. for 1 min. The PCR product and pET45b vector were digested with PmlI and SacI restriction enzymes, and the vector was dephosphorylated with CIP followed by in-gel purification using the MinElute Gel Extraction Kit (Qiagen Corp., Valencia, Calif.). The fragment was inserted into the vector directly downstream after the 6 histidine and valine codons, generating the construct pET45His6hMGL for expression of hMGL containing an N-terminal His6-tag. GC10 E. coli cells were used for DNA transformation and plasmid propagation. Mini- and midi-scale plasmid DNA preparations were performed using a GenElute Plasmid Miniprep Kit (Sigma) and PureYield Plasmid Midiprep System (Promega, Madison, Wis.), respectively. In-frame vector-fragment junctions and the coding sequence of the recombinant gene were confirmed by sequencing. The pET45His6hMGL construct was transformed into BL21 (DE3) and Origami (DE3) E. coli expression strains (Novagen, Madison, Wis.).
A single E. coli BL21 (DE3) colony containing the pET45His6hMGL plasmid was inoculated into 12 mL of Luria broth-ampicillin medium and grown overnight with shaking (250 rpm) at 37° C. The next morning, 10 mL of this culture was inoculated into 1 L of fresh Luria broth-ampicillin and allowed to grow until culture turbidity reached an (OD)600 of 0.6-0.8, at which time expression from the T7 promoter was induced by adding isopropyl-β-D-thio-galactopyranoside (1 mM). After 5 h induction, the cells were harvested by centrifugation at 5,000 g for 10 min at 4° C., washed with PBS, and held at −80° C. Five grams (wet-weight) of cells were resuspended in 50 mL lysis buffer (100 mM NaCl; 50 mM Tris, pH 8.0) supplemented with Triton X-100 (0.5%), lysozyme (0.2 mg/mL), and DNase I (25 μg/ml) and disrupted on ice by three, one-min sonication cycles, each consisting of 1-sec sonication bursts at 50 W power separated from each other by a 2-sec interval (Vibra-Cell 500 W, Sonics, Newtown, Conn.). The cell lysate was centrifuged at 10,000 g for 30 min at 4° C. […]

ΔTM rFAAH = target: T2, ΔTM rFAAH (Rattus norvegicus, UniProt P97612); test: Fluorescent enzyme assay, FAAH (AAMCA hydrolysis); type: biochemical; settings: for inhibition at 100 µM: 100 uM inhibitor, printed in the 1000 nM column; for inhibition at 0.01 µM: 10 nM inhibitor; for inhibition at 0.01 µM / inhibition at 1 µM / IC50: AAMCA substrate; for inhibition at 0.01 µM / inhibition at 1 µM: screening assay; for inhibition at 1 µM: 1000 nM inhibitor; for IC50: eight-point dose response
T2 construct: 15 ug of ΔTM rFAAH (cell lysate obtained by recombinant procedure); made in house
T2 sequence (P97612 30-579 limits assumed): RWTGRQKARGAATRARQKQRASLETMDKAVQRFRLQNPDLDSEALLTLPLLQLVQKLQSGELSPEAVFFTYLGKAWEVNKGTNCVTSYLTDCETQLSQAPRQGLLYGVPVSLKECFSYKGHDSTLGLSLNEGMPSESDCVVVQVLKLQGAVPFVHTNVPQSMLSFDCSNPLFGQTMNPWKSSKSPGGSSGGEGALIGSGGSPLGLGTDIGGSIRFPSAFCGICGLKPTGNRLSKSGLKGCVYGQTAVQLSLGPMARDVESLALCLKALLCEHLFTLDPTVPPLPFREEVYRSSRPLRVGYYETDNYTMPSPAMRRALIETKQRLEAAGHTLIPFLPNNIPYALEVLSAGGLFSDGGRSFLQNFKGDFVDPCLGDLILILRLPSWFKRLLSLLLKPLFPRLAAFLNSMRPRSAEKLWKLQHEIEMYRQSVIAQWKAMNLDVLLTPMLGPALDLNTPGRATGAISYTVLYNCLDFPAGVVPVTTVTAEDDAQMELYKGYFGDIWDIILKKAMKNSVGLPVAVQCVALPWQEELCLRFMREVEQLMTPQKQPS
Description: as §1
The enzyme (FAAH and MGL) assays were performed in 96 well plates (Coster #3650) in a total volume of 200 uL. Fluorogenic substrate AAMCA (arachidonoyl 7-amino-4-methylcoumarin amide) for FAAH and AHMMCE (arachidonoyl 7-hydroxy-6-methoxy-4-methylcoumarin ester) for MGL were used using BioTek Synergy HT Microplate Reader. Compounds and substrates were dissolved in DMSO provide a 10 mM stock solution and kept as a stock solution at −20° C. until used for assay. Stock solutions were thawed and reconstituted in 50:50 DMSO/assay buffer to a final DMSO concentration per well below 8%. This ensures that the compounds and substrate are in solution during assay. […] Appropriate substrate was added to adjust the final concentration in each well to 20 uM for FAAH (2× Km) and 10 uM for MGL (1×KM). Fluorescence readings were performed at λex=360/λem=460 for 4 h using Kinetic assay protocol at every 20 min (the fluorescent product coumarin produced is quantitated by this procedure). The readings at 3 h for FAAH and 2 h for MGL (linear maximum hydrolysis kinetics of enzyme on substrate) were used to calculate percent inhibition based on controls. Compounds which had more than 50 percent inhibition at 10 uM were selected for dose response study to determine IC50 values. The dose response at 8 concentration points was performed as with the screening assay except that compounds were serially diluted to 8 concentration points which were chosen based on IC50 value, which were calculated from the screening assay results. Assays are run twice in triplicates and Graphpad Prism software is used to plot inhibition data to obtain IC50 values.

[1] = AHMMCE substrate, screening assay
[2] = 10 nM inhibitor, AHMMCE substrate, screening assay

| inhibition at 1 µM (hMGL; [1]) | inhibition at 0.01 µM (ΔTM rFAAH) | inhibition at 1 µM (ΔTM rFAAH) | inhibition at 0.01 µM (hMGL; [2]) | Compound | further results |
| --- | --- | --- | --- | --- | --- |
| 7% | 25% | 90% | – | CN(CCCCN=C=S)C(=O)n1cnc(-c2ccccc2)c1 [Compound 49, N-(4-isothiocyanatobutyl)-N-methyl-4-phenyl-1H-imidazole-1-carboxamide] | IC50 (ΔTM rFAAH): 42 nM |
| 83% | – | 99% | – | CN(C)C(=O)N1C=NC2C(N=CN2C(=O)N(C)C)C1=O (centres unmarked) [Compound 62, N^1,N^1,N^9,N^9-tetramethyl-6-oxo-5,6-dihydro-4H-purine-1,9-dicarboxamide] | – |
| – | 93% | – | 96% | Cc1ccc(Cc2nnn(C(=O)N(C)C)n2)cc1 [Compound 26a, N,N-dimethyl-5-(4-methylbenzyl)-2H-tetrazole-2-carboxamide] | – |
| – | 47% | – | 21% | COc1ccc(Cc2nnn(C(=O)N(C)C)n2)cc1 [Compound 24a, 5-(4-methoxybenzyl)-N,N-dimethyl-2H-tetrazole-2-carboxamide] | – |
| 6% | – | 88% | – | CN(C)C(=O)n1cnc(-c2ccccc2)c1 [Compound 33, N,N-dimethyl-4-phenyl-1H-imidazole-1-carboxamide] | – |
| – | 92% | – | 98% | CN(C)C(=O)n1nnc(Cc2ccc(Br)cc2)n1 [Compound 16a, 5-(4-bromobenzyl)-N,N-dimethyl-2H-tetrazole-2-carboxamide] | – |
| 99% | – | 100% | – | CC(=O)Nc1ccc(Cc2nnn(C(=O)N(C)C)n2)cc1 [Compound 25a] | – |
| – | 92% | – | 64% | CN(C)C(=O)n1nnnc1Cc1ccc(Br)cc1 [Compound 16b] | – |
| – | 97% | – | 92% | CN(C)C(=O)n1nnnc1-c1cc2ccccc2[nH]1 [Compound 3b, 5-(1H-indol-2-yl)-N,N-dimethyl-2H-tetrazole-1-carboxamide] | – |
| – | 89% | – | 60% | CSc1ccc(Cc2nnnn2C(=O)N(C)C)cc1 [Compound 23b] | – |
| 15% | 12% | 90% | – | CN(CCCCCl)C(=O)n1cnc(-c2ccccc2)c1 [Compound 47, N-(4-chlorobutyl)-N-methyl-4-phenyl-1H-imidazole-1-carboxamide] | IC50 (ΔTM rFAAH): 78 nM |
| 40% | – | 21% | – | CN(C)C(=O)n1nnc(Cc2ccncc2)n1 [Compound 39, N,N-dimethyl-5-(pyridin-4-ylmethyl)-2H-tetrazole-2-carboxamide] | – |
| – | 92% | – | 97% | CN(C)C(=O)n1nnc(Cc2ccc(I)cc2)n1 [Compound 18a, 5-(4-iodobenzyl)-N,N-dimethyl-2H-tetrazole-2-carboxamide] | – |

Second part, the compound before the results:

| Compound | inhibition at 1 µM (hMGL; [1]) | inhibition at 0.01 µM (ΔTM rFAAH) | inhibition at 1 µM (ΔTM rFAAH) | inhibition at 0.01 µM (hMGL; [2]) | further results |
| --- | --- | --- | --- | --- | --- |
| CN(C)C(=O)n1cnc2nc(OCc3ccccc3)ncc21 [Compound 59, 2-(benzyloxy)-N,N-dimethyl-7H-purine-7-carboxamide] | – | – | – | – | inhibition at 100 µM (hMGL): 86%; inhibition at 100 µM (ΔTM rFAAH): 10% |
| CN(C)C(=O)n1nnnc1Cc1ccc(OC(F)(F)F)cc1 [Compound 19b] | – | 91% | – | 76% | – |
| CN(C)C(=O)Oc1ccc(Cc2nnn(C(=O)N(C)C)n2)cc1 [Compound 36a, 4((2-(dimethylcarbamoyl)-2H-tetrazol-5-yl)methyl)phenyl dimethylcarbamate] | – | 80% | – | – | inhibition at 0.01 µM (hMGL): 92% |
| CN(C)C(=O)n1nnnc1Cc1ccc(Cl)cc1Cl [Compound 17b] | – | 86% | – | 97% | – |
| CN(C)C(=O)n1ccc(-c2ccccc2)n1 [Compound 30, N,N-dimethyl-3-phenyl-1H-pyrazole-1-carboxamide] | 11% | – | 23% | – | – |
| O=C(N(c1ccccc1)c1ccccc1)n1nnnc1Cc1ccc(Cl)cc1Cl [Compound 8b] | 21% | – | 9% | – | – |
| CN(C)C(=O)n1nnc(Cc2cccc3ccccc23)n1 [Compound 50, N,N-dimethyl-5-(naphthalen-1-ylmethyl)-2H-tetrazole-2-carboxamide] | – | – | – | – | inhibition at 100 µM (hMGL): 42%; inhibition at 100 µM (ΔTM rFAAH): 85% |
| Cc1ccc(Cc2nnnn2C(=O)N(C)C)cc1 [Compound 26b] | – | 85% | – | 23% | – |
| CN(C)C(=O)n1cc(Cc2ccccc2)nn1 [Compound 70, 4-benzyl-N,N-dimethyl-1,2,3-triazole-1-carboxamide] | 99% | – | 98% | – | – |
| CN(C)C(=O)Oc1ccc(Cc2nnnn2C(=O)N(C)C)cc1 [Compound 36b, 4-((1-(dimethylcarbamoyl)-1H-tetrazol-5-yl)methyl)phenyl dimethylcarbamate] | – | 82% | – | – | inhibition at 0.01 µM (hMGL): 98% |
